Data published in US9445606B2, “Use of 4-hydroxydihydrochalcones and their salts for enhancing an impression of sweetness” (SYMRISE AG, priority 2006, dated 2016).

Columns and labels:
[1] = Enhancing the impression of sweetness of a solution containing a sweet-tasting substance (expert panel rating), sucrose; assay type: in vivo; conditions: 30 ppm substance, 5%
Protocol: (§1) In order to quantify the enhancement of an impression of sweetness by adding 4-hydroxydihydrochalcones to be used according to the invention, the sweetness of a solution containing a sweet-tasting substance and of samples containing the same amount of sweet-tasting substance and in addition a certain concentration of the 4-hydroxydihydrochalcones of the formula (I) to be used according to the invention was determined by a group of experts (classification 0 [extremely weaklysweet] to 10 [extremely sweet]). Evaluation was performed by calculating the enhancement (in %) of the impression of sweetness from the average values of the ratings for the solution containing the sweet-tasting substance (a) and for the solution containing the sweet-tasting substance and 4-dydroxydihydrochalcones (b).

[2] = Enhancing the impression of sweetness of a solution containing a sweet-tasting substance (expert panel rating), glycerine; assay type: in vivo; conditions: 30 ppm substance, 5%
Protocol: as §1

[3] = Impression of sweetness of a sugar-reduced test solution (5% sucrose + compound against 6% sucrose); assay type: in vivo
Text: In order to quantify the retention of an impression of sweetness when replacing a proportion of sucrose with a small amount of 4-hydroxydihydrochalcones of the formula (I) being used in accordance with the invention, the sweetness (a) of a solution containing 6 wt. % of sucrose as compared with a solution containing 5 wt. % of sucrose and (b) or (c) of a solution containing 6 wt. % of sucrose as compared with a solution containing 5% of sucrose and a certain concentration of a 4-hydroxydihydrochalcone being used according to the invention was determined by a group of experts (classification 0 [not sweet] to 10 [extremely sweet]). Evaluation was performed by calculating the enhancement (in %) of the impression of sweetness from the average values of the estimates for the solutions of 6% sucrose (second column) and for the solutions containing 5% sucrose and optionally the 4-hydroxydihydrochalcone of the formula (I) being used according to the invention (third column).

[4] = in particular in clear aqueous applications; cited from earlier work

| SMILES | total number of tasters / number of tasters who felt that test solution (b) was sweeter than test solution (a) [1] | % enhancement of the impression of sweetness ([1]; (b) with against (a) without) | Impression of sweetness (1-10) b) with ([1]; mean ± standard deviation) | total number of tasters / number of tasters who felt that test solution (b) was sweeter than test solution (a) [2] | % enhancement of the impression of sweetness ([2]; (b) with against (a) without) | Impression of sweetness (1-10) b) with ([2]; mean ± standard deviation) | total number of tasters / number of tasters who felt the 5 wt. % sucrose test solution with substance sweeter than 6 wt. % sucrose ([3]; 5% sucrose + 30 ppm substance) | % enhancement of the impression of sweetness ([3]; 5% sucrose + 30 ppm substance against 6% sucrose) [%] | Impression of sweetness (1-10) ([3]; 5% sucrose + 30 ppm substance, mean ± standard deviation) | solubility [4] |
| --- | --- | --- | --- | --- | --- | --- | --- | --- | --- | --- |
| O=C(CCc1ccc(O)cc1)c1c(O)cc(O)cc1O [compound 4, 3-(4-hydroxyphenyl)-1-(2,4,6-trihydroxyphenyl)propan-1-one] | 16/14 | +31% | 7.4 ± 1.4 | 16/11 | +45% | 4.4 ± 2.1 | 16/7 | −4.9 | 6.1 ± 1.4 | – |
| COc1ccc(C2CC(=O)c3c(O)cc(O)cc3O2)cc1O (stereo not shown) [hesperetin] | – | – | – | – | – | – | – | – | – | low solubility |
